“And” between values parts separate entries of the source, which are not always exact repeats. Equal entries are not always repeated. “Also recorded” adds a separate entry of the source.
Tests used:
blood = blood preservation: ATP content of refrigerated blood, 25, 50 and 100 mg per 10 ml; parameters: species or system dog
Procedure: The tests were also conducted under the conditions when 25mg, 50mg, and 100mg of FDP were mixed with 10ml of blood and 25mg, 50mg, and 100mg, of glucose were mixed with 10ml of blood. […]

[1] = system: dogs anesthetized with Surital; assay: analeptic effect of intra-carotid administration on Surital (thiamylal) anesthesia in dogs; format: in vivo, dog; conditions: for time required for return of observable eyelid reflex: after beginning the infusion into the carotid artery (±SDM); for time required to regain walking ability: mean, p<0.001 FDP vs dextrose; for Able To Sit / Able To Walk / Eyes Open / Lifts Head / Response To Pain: time after beginning of infusion, individual dogs
Procedure: In this paired test 10 dogs were anesthetized with Surital 35mg/kg IV. Within 10 minutes after induction of anesthesia, a #7 Sones catheter was placed in a common carotid artery via the femoral artery under fluoroscopic guidance. […] Immediately following the contrast media injection the infusion of FDP or glucose was initiated (9-13 min. after induction of anesthesia). The FDP was prepared as a 5% solution and infused at a constant rate of 1.91 ml/min. (97.5 mg/min.) into a main carotid artery. The controls received equal amounts of 5% dextrose via the same route. The analeptic effect of FDP on signs, stages and depth of anesthesia was evaluated by determining the time required for reappearance of eyelid reflex, opening of eyes, deglutiton, response to pain, lifting of the head, sitting, and when the animal was able to walk.

[2] = system: dogs subjected to hemorrhagic shock; assay: irreversible hemorrhagic shock in dogs (modified Wiggers technique, 35 mm Hg for 3 hours); format: in vivo, dog; conditions: for survival after retransfusion: retransfused at three hours
Procedure: In the experiments regarding an irreversible hemorrhagic shock, results were obtained in the dog model using Wigger's modified technique. We compared a group of animals receiving IV administration of fructose-1,6-diphosphate (FDP) to a group receiving equimolar glucose.
The experiments were performed in b 25 pentobarbital anesthetized (30 mg/kg IV) mongrel dogs of both sexes. After induction of anesthesia the animals were […] and ventilated with a Harvard respiration pump with the use of ambient air. Secured in the left lateral decubitus position on the fluoroscopic table, a femoral artery was used to introduce a large bore polyethylene catheter which was connected to a 1.5 liter bottle elevated at 35 mm Hg above the atrial level. In the connecting system an external calibrated electromagnetic flow probe (Statham) was incorporated in order to follow the direction and amount of blood flow. The pressure in this system was monitored through a side opening with the aid of a Statham pressure gauge. The other femoral artery was percutaneously catheterized and a Judkins type pigtail catheter was advanced to the aortic root. In the course of the experiments this catheter was placed intermittently into the left ventricle when recordings were made. This set-up enable us to monitor both aortic and left ventricular pressures via a single catheter. The femoral vein on the side where the incision was made was catheterized as well as a superficial vein of the front limb transutaneously for administration of the FDP, glucose, heparin and supplemental anesthetic. Parameters such as aortic, ventricular and femoral pressures, and EKG were monitored on an Electronics for Medicine DR-8 recorder. Recording of these parameters was made every 15 min. Heparin ([…] initially and thereafter 3 mg/kg/2 hrs) and antibiotics were given to all animals that were allowed to recover. A control period of one hour was allowed prior to bleeding the animal. During this period two arterial blood samples were drawn for pH, pO2, pCO2, pCO2 combining power and lactic acid determinations. During the oliegemic phase four arterial samples were taken for determination of the same parameters described at 30 min, 1 hr, 2 hrs, and 2 hrs 45 min.
The blood from the animals was withdrawn via the femoral artery (50-55 ml/min) until the means arterial pressure dropped to 35 mm Hg and from then on the pressure was kept at this level for three hours. The protocol for evaluating the therapeutic effect of FDP was designed in the following manner. […] Both groups received an additional 500 mg IV bolus of FDP or glucose every 30 min for the duration of the oligemic phase. In five controls and six treated dogs the chest was opened at three hours and with the aid of a specially designed cutting tool that had been cooled in liquid nitrogen, frozen transmural sections from the left ventricle were taken for ATP, creatine phosphate (CP), FDP and lactic acid determinations. The remaining 14 animals (6 controls and 8 treated with FDP) were retransfused at three hours and allowed to recover.
The epicardium and endocardium from the frozen tissue were separated (while still frozen) and homogenized in 6% perchloric acid. The supernatant was used to determine ATP, CP and lactate. The ATP and creatine phosphate were assessed with the method described by Lamprecht (Lamprecht, W., and P. Stein. Methods of Enzymatic Analysis. Ed: H. V. Bergmeyer, New York, Academic Press, 1963, p. 610.) while lactate was measured by the method of Marback (Marback, E. P., and M. H. Weil. Rapid enzymatic measurement of blood lactate and pyruvate. Clin. Chem. 13: 314, 1967). Tissue content of FDP was assessed by the method of Bucher and Hohorst (Bucher, T., and H. J. Hohorst. Dihydroxyacetone phosphate, fructose 1-6 diphosphate and D-glyceraldehyde 3-phosphate. In. Methods of Enzymatic Analysis. Ed: Bermeyer, New York, Academic Press, 1963, pgs. 246-252.)

human WBC = assay: carbohydrate metabolism of human white blood cells in vitro; format: cell-based; conditions: for ATP content: incubated at 37° Celsius
Procedure: The tests were also conducted to investigate the effect of FDP on white blood cells (WBC) on metabolism in vitro. […] It was experimentally assessed whether FDP can stimulate the carbohydrate metabolism of these cells at rest. A similar phenomenon observed for normal human erythrocytes, sickle cells and dog erythrocytes. From healthy humans and dogs, the white blood cells were separated and incubated at 37° Celsius for various periods of time with FDP, glucose and normal saline. At the end of incubation, ATP and intermediates of the glycolytic pathway were assessed. […] The pyruvic acid concentration in dog WBC incubated with FDP was 10 times greater than those incubated in glucose while those for the human WBC, this difference was of much lesser degree (X2). The dihydroxyacetone (DHA) in the human and canine WBC was 5 to 10 times greater in the FDP incubated than in the glucose ones.

[3] = 25 mg with 10ml of blood, 24 hours
[4] = 25 mg with 10ml of blood, 48 hours
[5] = 50 mg with 10ml of blood, 24 hours
[6] = 50 mg with 10ml of blood, 48 hours
[7] = 100 mg with 10ml of blood, 24 hours
[8] = 100 mg with 10ml of blood, 48 hours

`O=C[C@H](O)[C@@H](O)[C@H](O)[C@H](O)CO` [glucose, reference compound] gave an ATP (blood; [3]) of 0.475 m mole/ml, an ATP (blood; [4]) of 0.475 m mole/ml and an ATP (blood; [5]) of 0.375 m mole/ml. The ATP (blood; [6]) was 0.450 m mole/ml, the ATP (blood; [7]) was 0.250 m mole/ml and the ATP (blood; [8]) was 0.426 m mole/ml. The “time required for return of observable eyelid reflex” value [1] was 70.00 ± 25 min, the “time required to regain walking ability” value [1] was 295.00 ± 24.49 min and the “Able To Sit” value [1] was 300 min and 225 min and 310 min and 215 min. For the same molecule, the “Able To Walk” value [1] was 310 min and 300 min and 330 min and 280 min and 265 min, the “Eyes Open” value [1] was 80 min and 75 min and 105 min and 54 min and 40 min and the “Lifts Head” value [1] was 170 min and 135 min and 190 min and 165 min and 120 min. The “Response To Pain” value [1] was 120 min and 130 min and 160 min and 125 min and 100 min, the “ischemic EKG changes in control (glucose) animals” value ([2]; 55 min to 1 hour 15 minutes after onset of shock) was “All control animals demonstrated ischemic EKG changes” and the “creatine phosphate (CP) in the endocardium, less than normal” value ([2]; at three hours) was 88%. For the same molecule, the “creatine phosphate (CP) in the epicardium, less than normal” value ([2]; at three hours) was 64%, the “endocardial ATP content, fall” value ([2]; at three hours) was 50% and the “endocardial/epicardial tissue lactate ratio” value ([2]; at three hours) was 1.52±0.21. The ST elevation ([2]; maximum at 2 hours, precordial leads) was 0.55±0.17 mV, the survival after retransfusion [2] was “All 6 control animals that were retransfused died within 24 hours” and the ATP content (human WBC) was 1.28±0.21 m.mole/#WBC.
`O=C(COP(=O)(O)O)[C@@H](O)[C@H](O)[C@H](O)COP(=O)(O)O` [FDP, fructose-1,6-diphosphate] was tested, and the ATP (blood; [3]) was 1.67 m mole/ml, the ATP (blood; [4]) was 1.92 m mole/ml and the ATP (blood; [5]) was 2.2 m mole/ml. It also gave an ATP (blood; [6]) of 2.85 m mole/ml, an ATP (blood; [7]) of 2.82 m mole/ml and an ATP (blood; [8]) of 3.40 m mole/ml. The “time required for return of observable eyelid reflex” value [1] was 3.70 ± 0.67 min, the “time to regain consciousness and be able to walk (in words)” value ([1]; intra-carotid administration) was “greatly reduces the time required for the animal to regain consciousness and be able to walk” and the “time required to regain walking ability” value [1] was 76.6 ± 16 min. The “Able To Sit” value [1] was 48 min and 47 min and 35 min and 52 min and 40 min, the “Able To Walk” value [1] was 60 min and 70 min and 50 min and 95 min and 82 min and the “Eyes Open” value [1] was 7 min and 14 min and 5 min and 12 min and 4 min. For the same molecule, the “Lifts Head” value [1] was 28 min and 33 min and 14 min and 19 min and 20 min, the “Response To Pain” value [1] was 17 min and 19 min and 10 min and 18 min and 15 min and the “outcome of irreversible experimental hemorrhagic shock” value ([2]; 3 hour duration at 35mm Hg AP) was “could be successfully treated with FDP”. For the same molecule, the mortality ([2]; FDP by IV administration) was “zero”, the “creatine phosphate (CP) depletion” value ([2]; FIG. 4, epicardium and endocardium, 35 mm. Hg. for 3 hours) was “prevents depletion of creatine phosphate (CP) in both epicardium and endocardium” and the “ATP content in the epicardium” value ([2]; FIG. 4, hypotension of 35 mm. Hg. for 3 hours, FDP vs controls) was “no significant difference in ATP content”. For the same molecule, the myocardial contractility ([2]; Intravenous administration) was “improves the myocardial contractility”, the “arterial plasma lactic acid, course after 2 hours” value ([2]; after 2 hours of hemorrhage) was “the plasma lactate continued to rise” and the “heart rate return towards control” value ([2]; after retransfusion) was “returned faster towards control”. For the same molecule, the ATP myocardial content ([2]; at three hours) was “normal ATP myocardial content and no transmural gradient”, the “CP in the epicardium (in words)” value ([2]; at three hours) was “no deficit in the epicardium” and the “creatine phosphate (CP) in the endocardium, less than normal” value ([2]; at three hours) was 18%. For the same molecule, the “endocardial/epicardial tissue lactate ratio” value ([2]; at three hours) was 2.26 ±0.26, the “ATP and CP content in the myocardium / endocardium” value ([2]; dog, in vivo) was “restores ATP and CP content in the myocardium” and the “ST elevation (in words)” value ([2]; dog, in vivo) was “only minimal elevation was observed in two animals”. The “activity of glycolysis in the endocardium” value ([2]; dog, in vivo) was “restores the depressed activity of glycolysis in the endocardium”, the heart rate ([2]; dog, in vivo) was less than 200 beats/min and the “plasma lactate and myocardial tissue lactate” value ([2]; dog, in vivo) was “increased plasma lactate and myocardial tissue lactate”. The “ATP and CP content in the myocardium / endocardium” value ([2]; dog, in vivo, listed as Fructose diphosphate) was “increased significantly the ATP and CP in the endocardium”, the plasma lactate ([2]; measured at 2 hrs 45 min after the onset of hypotension) was 124±16 mg % and the “arterial pH” value ([2]; not exceptional in the group treated with FDP) was no more than 6.8. The “animals with spontaneous reversal of blood flow (from the bottle to the animal)” value ([2]; oligemic phase) was “only two of them reversed their flow”, the “electrocardiographic (EKG) ischemic changes” value ([2]; oligemic phase) was “In both animals after FDP was given the ischemic changes disappeared; also recorded: prevents the EKG ischemic changes” and the “electrocardiographic (EKG) ischemic changes” value ([2]; oligemic phase, listed as Fructose diphosphate) was “prevented electrocardiographic ischemic changes”. The survival after retransfusion [2] was “All 8 dogs treated with FDP survived”, the “renal and bowel function, neurological deficit” value ([2]; surviving dogs) was “normal renal and bowel function and no neurological deficit was noted” and the “amount of blood uptake” value ([2]; two FDP animals with reversed flow) was 24 % of the shed blood and 17 % of the shed blood. For the same molecule, the “effect on carbohydrate metabolism” value (human WBC) was “profound stimulating effect on the carbohydrate metabolism”, the “concentration dependence of ATP production” value (human WBC; 5 to 50 mg/ml FDP, no AMP or ADP) was “independent of the concentration (from 5 to 50 mg/ml), but rather a function of the incubation time” and the “concentration dependence of ATP increase” value (human WBC; AMP or ADP added) was “the increase of ATP becomes a function of the FDP concentration”. For the same molecule, the ATP content (human WBC) was 2.47±0.25 m.mole/#WBC.
